Among the data in ChEMBL document CHEMBL4619786, “Discovery of Novel Resorcinol Dibenzyl Ethers Targeting the Programmed Cell Death-1/Programmed Cell Death-Ligand 1 Interaction as Potential Anticancer Agents” (J Med Chem, 2020) are IC50 values, retold here.

Bounds are passed on as bounds.

In the assay the target is Programmed cell death protein 1/Programmed cell death 1 ligand 1 (Homo sapiens, UniProt Q9NZQ7). Briefly: Inhibition of human PD1/PDL1 protein-protein interaction by HTRF assay. It counts as protein-complex assay.
Chain of Programmed cell death protein 1/Programmed cell death 1 ligand 1 (Q15116 whole entry): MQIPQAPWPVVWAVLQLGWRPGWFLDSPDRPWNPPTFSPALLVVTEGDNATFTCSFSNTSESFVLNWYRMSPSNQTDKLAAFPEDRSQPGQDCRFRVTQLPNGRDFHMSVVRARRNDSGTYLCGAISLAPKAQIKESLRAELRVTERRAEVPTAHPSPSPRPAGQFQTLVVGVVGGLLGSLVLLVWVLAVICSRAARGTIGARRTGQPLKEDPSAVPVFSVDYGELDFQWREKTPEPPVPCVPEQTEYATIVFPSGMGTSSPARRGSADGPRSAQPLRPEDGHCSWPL
Chain of Programmed cell death protein 1/Programmed cell death 1 ligand 1 (Q9NZQ7 whole entry): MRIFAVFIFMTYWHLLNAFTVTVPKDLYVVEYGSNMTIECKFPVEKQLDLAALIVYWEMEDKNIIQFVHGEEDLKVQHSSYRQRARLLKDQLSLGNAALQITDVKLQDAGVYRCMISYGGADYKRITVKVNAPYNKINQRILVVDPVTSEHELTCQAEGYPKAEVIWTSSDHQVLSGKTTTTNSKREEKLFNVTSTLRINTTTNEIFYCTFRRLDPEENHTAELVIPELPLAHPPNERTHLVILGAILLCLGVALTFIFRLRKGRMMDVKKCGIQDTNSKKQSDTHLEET
For `Cc1c(COc2cc(OCc3cccc(C#N)c3)c(CN[C@H](C(=O)O)[C@@H](C)O)cc2Cl)cccc1-c1ccccc1`, inhibition was half-maximal at 9 nM (IC50).
The value for `Cc1c(COc2cc(OCc3cccc(C#N)c3)c(CN3CCN(C4CC4)CC3)cc2Cl)cccc1-c1ccc2c(c1)OCCO2` was 409 nM; that for `Cc1c(COc2cc(OCc3cccc(C#N)c3)c(CN3CCCCC3C(=O)O)cc2Cl)cccc1-c1ccncc1` (stereo not drawn) was greater than 100 nM; that for `Cc1c(COc2cc(OCc3cccc(C#N)c3)c(CNCCN(C)C)cc2Cl)cccc1-c1ccccc1` was 10 to 100 nM.
The value for `Cc1c(COc2cc(OCc3cccc(C#N)c3)c(CN3CC(C)(O)C3)cc2Cl)cccc1-c1ccc2c(c1)OCCO2` was 10 to 100 nM; that for `CC(=O)N1CCN(Cc2ccc3oc(-c4cccc(-c5ccccc5)c4)cc(=O)c3c2)CC1` was greater than 10000 nM; that for `CC(=O)N1CCN(Cc2ccc3oc(-c4cccc(-c5ccccc5)c4C)cc(=O)c3c2)CC1` was greater than 10000 nM.
The value for `Cc1c(COc2cc(OCc3cccc(C#N)c3)c(CN3CC[C@H](C(=O)O)C3)cc2Cl)cccc1-c1ccccc1` was 10 to 100 nM; that for `Cc1c(COc2cc(OCc3cccc(C#N)c3)c(CNCCN(C)C)cc2Cl)cccc1-c1ccc2c(c1)OCCO2` was 26.3 nM.
As for `Cc1c(COc2cc(OCc3cccc(C#N)c3)c(CN3C[C@H](O)[C@@H](F)C3)cc2Cl)cccc1-c1ccc2c(c1)OCCO2`, the IC50 (as a rule, the concentration at which inhibition is half-maximal) was greater than 100 nM.
The value for `Cc1c(COc2cc(OCc3cccc(C#N)c3)c(CN3CC[C@@H](O)C3)cc2Cl)cccc1-c1ccccc1` was 10 to 100 nM; that for `Cc1c(-c2ccccc2)cccc1-c1cc(=O)c2cc(CN3CCNCC3)ccc2o1` was greater than 10000 nM.
The value for `Cc1c(/C=C/C(=O)c2cc(CN3CCN(C4CC4)CC3)ccc2O)cccc1-c1ccccc1` was greater than 20000 nM; that for `Cc1c(COc2cc(OCc3cccc(C#N)c3)c(CN3C[C@@H](O)C[C@H]3C(=O)O)cc2Cl)cccc1-c1cccnc1` was greater than 100 nM; that for `CC(=O)NCCNCc1ccc2cc(OCc3cccc(-c4ccccc4)c3C)ccc2c1` was greater than 10000 nM.
The value for `Cc1c(COc2cc(OCc3cccc(C#N)c3)c(CNCC(=O)O)cc2Cl)cccc1-c1ccc2c(c1)OCCO2` was greater than 100 nM.
The molecule `Cc1c(COc2cc(OCc3cccc(C#N)c3)c(CN3CC(O)C3)cc2Cl)cccc1-c1ccc2c(c1)OCCO2` had an IC50 of 30.4 nM.
The value for `Cc1c(COc2ccc3cc(CN[C@@H](CO)C(=O)O)ccc3c2)cccc1-c1ccc2c(c1)OCCO2` was greater than 10000 nM.
To `Cc1c(COc2cc(OCc3cccc(C#N)c3)c(CN3CC[C@H](O)C3)cc2Cl)cccc1-c1ccccc1` belongs 10 to 100 nM.
The value for `Cc1c(COc2cc(OCc3cccc(C#N)c3)c(CNCCNC(=O)OC(C)(C)C)cc2Cl)cccc1-c1ccc2c(c1)OCCO2` was 55.9 nM; that for `O=c1cc(-c2ccc(O)cc2)oc2cc(O[C@@H]3O[C@H](CO)[C@@H](O)[C@H](O)[C@H]3O[C@@H]3OC[C@](O)(CO)[C@H]3O)cc(O)c12` [APIIN] was greater than 100000 nM.
`Cc1c(COc2cc(OCc3cccc(C#N)c3)c(CN3CCN(CC4CC4)CC3)cc2Cl)cccc1-c1ccc2c(c1)OCCO2` gave an IC50 greater than 1000 nM.
Consider `Cc1c(COc2cc(OCc3cccc(C#N)c3)c(CN3CC[C@@H](C(=O)O)C3)cc2Cl)cccc1-c1ccccc1`, for which the IC50 lay in the range of 10 to 100 nM.
To `Cc1c(COc2cc(OCc3cccc(C#N)c3)c(/C=N/C(CS)C(=O)O)cc2Cl)cccc1-c1ccccc1` (stereo not drawn) belongs greater than 100 nM; to `Cc1c(COc2cc(OCc3cccc(C#N)c3)c(CN3CC(C(=O)O)C3)cc2Cl)cccc1-c1ccc2c(c1)OCCO2`, 14.5 nM; to `CC(=O)N1CCN(Cc2ccc3oc(-c4cccc(-c5ccc6c(c5)OCCO6)c4C)cc(=O)c3c2)CC1`, greater than 10000 nM.
The value for `Cc1c(COc2cc(OCc3cccc(C#N)c3)c(CN3CCN(C(C)C)CC3)cc2Cl)cccc1-c1ccc2c(c1)OCCO2` was greater than 1000 nM; that for `Cc1c(COc2cc(OCc3cccc(C#N)c3)c(CN3CCCC[C@H]3C(=O)O)cc2Cl)cccc1-c1ccncc1` was greater than 100 nM; that for `Cc1c(COc2cc(OCc3cccc(C#N)c3)c(CN3CC(O)C(CO)C3)cc2Cl)cccc1-c1ccc2c(c1)OCCO2` (stereo not drawn) was 16.7 nM.
To `CC(=O)N1CCN(Cc2cc(Cl)c(OCc3cccc(-c4ccc5c(c4)OCCO5)c3C)cc2OCc2cccc(C#N)c2)CC1` belongs 408 nM; to `Cc1c(COc2cc(OCc3cccc(C#N)c3)c(CNCC(=O)O)cc2Cl)cccc1-c1ccccc1`, 10 to 100 nM; to `Cc1c(COc2ccc3cc(CNC(C)(C)C(=O)O)ccc3c2)cccc1-c1ccccc1`, greater than 10000 nM.
As to `Cc1c(COc2cc(OCc3cccc(C#N)c3)c(CN3C[C@@H](O)C[C@@H]3CO)cc2Cl)cccc1-c1ccccc1`, the IC50 lay within 10 to 100 nM.
`CCN1CCN(Cc2ccc3oc(-c4cccc(-c5ccccc5)c4C)cc(=O)c3c2)CC1` yielded an IC50 greater than 10000 nM.
The value for `CC(=O)N1CCN(Cc2ccc(O)c(C(=O)/C=C/c3cccc(-c4ccccc4)c3C)c2)CC1` was 14400 nM; that for `Cc1c(COc2cc(OCc3cccc(C#N)c3)c(CNC(C)(C)C(=O)O)cc2Cl)cccc1-c1cccnc1` was 10 to 100 nM; that for `Cc1c(COc2cc(OCc3cccc(C#N)c3)c(CNCCN)cc2Cl)cccc1-c1ccc2c(c1)OCCO2` was greater than 100 nM.
`COc1cc2c(c(O)c1CC=C(C)C)C(=O)C[C@@H](c1ccc(O)cc1)O2` displayed an IC50 of 96600 nM.
The value for `Cc1c(COc2cc(OCc3cccc(C#N)c3)c(CN3CCCC[C@H]3C(=O)O)cc2Cl)cccc1-c1cccnc1` was greater than 100 nM; that for `Cc1c(COc2cc(OCc3cccc(C#N)c3)c(CN3CCN(C)CC3)cc2Cl)cccc1-c1ccc2c(c1)OCCO2` was 225 nM; that for `Cc1c(COc2ccc3cc(CN4C[C@@H](O)C[C@H]4C(=O)O)ccc3c2)cccc1-c1ccccc1` was greater than 10000 nM.
The value for `Cc1c(COc2cc(OCc3cccc(C#N)c3)c(CNC(C)(C)C(=O)O)cc2Cl)cccc1-c1ccc2c(c1)OCCO2` was 25.2 nM; that for `CC(=O)N1CCN(Cc2ccc(O)c(C(=O)/C=C/c3cccc(-c4ccc5c(c4)OCCO5)c3C)c2)CC1` was greater than 20000 nM.
The value for `CCN1CCN(Cc2cc(Cl)c(OCc3cccc(-c4ccc5c(c4)OCCO5)c3C)cc2OCc2cccc(C#N)c2)CC1` was 711 nM.
For `Cc1c(COc2cc(OCc3cccc(C#N)c3)c(CN3CCNCC3)cc2Cl)cccc1-c1ccc2c(c1)OCCO2`, the IC50 amounted to 233 nM.
The value for `Cc1c(COc2cc(OCc3cccc(C#N)c3)c(CN3CC[C@@H](C(=O)O)C3)cc2Cl)cccc1-c1ccc2c(c1)OCCO2` was 15.2 nM; that for `Cc1c(/C=C/C(=O)c2cc(CN3CCNCC3)ccc2O)cccc1-c1ccccc1` was greater than 20000 nM; that for `Cc1c(COc2ccc3cc(CNCCN)ccc3c2)cccc1-c1ccccc1` was greater than 10000 nM.
The value for `Cc1c(COc2cc(OCc3cccc(C#N)c3)c(CN[C@@H](C(=O)O)[C@H](C)O)cc2Cl)cccc1-c1ccccc1` was 8.5 nM; that for `Cc1c(COc2ccc3cc(CNC(C)(C)C(=O)O)ccc3c2)cccc1-c1ccc2c(c1)OCCO2` was greater than 10000 nM.
The value for `Cc1c(COc2cc(OCc3cccc(C#N)c3)c(CN3CC(O)C3)cc2Cl)cccc1-c1ccccc1` was greater than 100 nM; that for `c1cc2c(cc1[C@H]1OC[C@H]3[C@@H]1CO[C@@H]3c1ccc3c(c1)OCO3)OCO2` [SESAMIN] was greater than 100000 nM.
In turn, `Cc1c(COc2cc(OCc3cccc(C#N)c3)c(CN3C[C@@H](O)C[C@H]3C(=O)O)cc2Cl)cccc1-c1cncnc1` returned an IC50 greater than 100 nM.
To `Cc1c(/C=C/C(=O)c2cc(CN3CCN(c4cccc([N+](=O)[O-])c4)CC3)ccc2O)cccc1-c1ccc2c(c1)OCCO2` belongs 19300 nM.
The value for `Cc1c(COc2cc(OCc3cccc(C#N)c3)c(CN3CC[C@@H](O)C3)cc2Cl)cccc1-c1ccc2c(c1)OCCO2` was 14.9 nM.
The value for `Cc1c(COc2cc(OCc3cccc(C#N)c3)c(CN[C@@H](C(=O)O)[C@H](C)O)cc2Cl)cccc1-c1ccncc1` was greater than 100 nM.
In turn, `CC(=O)NCCNCc1ccc(O)c(C(=O)/C=C/c2cccc(-c3ccccc3)c2C)c1` yielded an IC50 of 5300 nM.
The value for `Cc1c(COc2cc(OCc3cccc(C#N)c3)c(CN3CC(C)(O)C3)cc2Cl)cccc1-c1ccccc1` was greater than 100 nM; that for `Cc1c(-c2ccccc2)cccc1-c1cc(=O)c2cc(CN3CCN(CC4CC4)CC3)ccc2o1` was greater than 10000 nM; that for `Cc1c(COc2cc(OCc3cccc(C#N)c3)c(CN3C[C@@H](O)C[C@H]3C(=O)O)cc2Cl)cccc1-c1ccncc1` was greater than 100 nM.
The value for `Cc1c(COc2cc(OCc3cccc(C#N)c3)c(CN3C[C@H](O)[C@@H](F)C3)cc2Cl)cccc1-c1ccccc1` was greater than 100 nM.
The value for `Cc1c(COc2cc(OCc3cccc(C#N)c3)c(CN3CC(C(=O)O)C3)cc2Cl)cccc1-c1ccccc1` was 31.2 nM.
In the case of `CCN1CCN(Cc2ccc(O)c(C(=O)/C=C/c3cccc(-c4ccccc4)c3C)c2)CC1`, half-maximal inhibition (IC50) required 14600 nM.
The value for `Cc1c(COc2cc(OCc3cccc(C#N)c3)c(CN[C@H](CO)C(=O)O)cc2Cl)cccc1-c1cccnc1` was 10 to 100 nM; that for `Cc1c(COc2cc(OCc3cccc(C#N)c3)c(CN[C@@H](CO)C(=O)O)cc2Cl)cccc1-c1ccncc1` was greater than 100 nM; that for `Cc1c(COc2cc(OCc3cccc(C#N)c3)c(CN3CCC(O)C3)cc2Cl)cccc1-c1ccccc1` (stereo not drawn) was 10 to 100 nM.
To `Cc1c(COc2cc(OCc3cccc(C#N)c3)c(CNCCO)cc2Cl)cccc1-c1ccncc1` belongs greater than 100 nM; to `CC(=O)N1CCN(Cc2ccc(O)c(C(=O)/C=C/c3cccc(-c4ccccc4)c3F)c2)CC1`, greater than 20000 nM; to `Cc1c(COc2cc(OCc3cccc(C#N)c3)c(CN3CCN(C(=O)OC(C)(C)C)CC3)cc2Cl)cccc1-c1ccc2c(c1)OCCO2`, greater than 1000 nM.
The molecule `CC(=O)N1CCN(Cc2ccc3oc(-c4cccc(-c5ccccc5)c4F)cc(=O)c3c2)CC1` showed an IC50 greater than 10000 nM.
To `Cc1c(COc2ccc3cc(CN4C[C@@H](O)C[C@H]4C(=O)O)ccc3c2)cccc1-c1ccc2c(c1)OCCO2` belongs greater than 10000 nM; to `CC(=O)N1CCN(Cc2ccc(O)c(C(=O)/C=C/c3cccc(-c4ccccc4)c3)c2)CC1`, greater than 20000 nM.
The value for `Cc1c(COc2cc(OCc3cccc(C#N)c3)c(CN3CCCC[C@H]3C(=O)O)cc2Cl)cccc1-c1cncnc1` was greater than 100 nM.
